Where a SMILES comes first, the peptide text is derived from it. The star is where a group is joined. Acetyl(1-pyrenyl) = O=C(Cc1ccc2ccc3cccc4ccc1c2c34)*; Acetyl(2-naphthyl) = O=C(Cc1ccc2ccccc2c1)*
Tests used:
MMP-9 [1] = test: Digestion of peptides by MMP-9; type: in vitro ADME; settings: MMP-9 (10 U) in Tris-HCl buffer, pH 7.5
MMP-9 [2] = test: Tris-HCl buffer; settings: 37 °C, up to 72 h

Compound | remaining at 72 h, 500 μM (MMP-9 [1]) | cleaved bond (MMP-9 [2])
CC(C)C[C@H](NC(=O)CNC(=O)[C@H](CC(C)C)NC(=O)[C@@H]1CCCN1C(=O)CNC(=O)[C@H](Cc1ccccc1)NC(=O)[C@H](Cc1ccccc1)NC(=O)Cc1ccc2ccccc2c1)C(=O)N[C@@H](CCCNC(=N)N)C(=O)N[C@@H](CO)C(=O)N[C@@H](CCCCN)C(=O)O [3a] ({Acetyl(2-naphthyl)}-FFGPLGLRSK-OH; N-terminus assumed) | 41% | –
PLSLRSK | – | L-R, major
CC(C)C[C@H](NC(=O)[C@H](CO)NC(=O)[C@H](CC(C)C)NC(=O)[C@@H]1CCCN1C(=O)Cc1ccc2ccc3cccc4ccc1c2c34)C(=O)N[C@@H](CCCNC(=N)N)C(=O)N[C@@H](CO)C(=O)N[C@@H](CCCCN)C(=O)O [4c] ({Acetyl(1-pyrenyl)}-PLSLRSK-OH; N-terminus assumed) | 18% | –
PLGLRSK | – | L-R, major

— PMC3920740 (Biopolymers, 2013)
